Earlier results on 2 compounds are cited in US5627200A, “β3 -Adrenoceptor agonists and antagonists for the treatment of intestinal motility disorders, depression, prostate disease and dyslipidemia” (Pfizer Inc, priority 1994, dated 1997).

Series [1] concerns rodent models of depression. The note with it: reported in Europ. J. Pharm., 219, 193 (1992).
Series [2] concerns genetic animal models of obesity and diabetes.

`CCOC(=O)COc1ccc2c(c1)C[C@@H](NC[C@H](O)c1cccc(Cl)c1)CC2.Cl` [N-[(2S)-7-carbethoxymethoxy-1,2,3,4-tetrahydronaphth-2-yl]-(2R)-2-hydroxy-2-(3-chlorophenyl)-ethanamine hydrochloride]: the “activity in rodent models of depression” value in series [1] is recorded as “demonstrate activity in rodent models of depression”.

As to `COC(=O)COc1ccc(CC(C)NCC(O)c2cccc(Cl)c2)cc1` (stereo not drawn) [N-[2-(4-carbomethoxymethoxyphenyl)-1-methylethyl]-2-hydroxy-2-(3-chlorophenyl)ethanamine], in series [2], the plasma fatty acids entry was “reduces” and the plasma triglycerides entry is listed as “reduces”.
